US9873670B2, “Arylquinoline and analog compounds and use thereof to treat cancer” (UNIVERSITY OF KENTUCKY RESEARCH FOUNDATION, priority 2013, dated 2018)

How the values were obtained:
[1] = tested on: panel of lung tumor cells; assay: Par-4 secretion from lung tumor cells; format: cell-based
[2] = molecular target: T1, binding of Par-4 to vimentin (Homo sapiens, UniProt P08670); assay: Co-immunoprecipitation and immunocytochemistry of Par-4 and vimentin; format: cell-based; details: cells treated with compound
T1 construct: the Par-4 antibody co-immunoprecipitated endogenous vimentin; endogenous in cells
T1 sequence (P08670 2-466 limits assumed): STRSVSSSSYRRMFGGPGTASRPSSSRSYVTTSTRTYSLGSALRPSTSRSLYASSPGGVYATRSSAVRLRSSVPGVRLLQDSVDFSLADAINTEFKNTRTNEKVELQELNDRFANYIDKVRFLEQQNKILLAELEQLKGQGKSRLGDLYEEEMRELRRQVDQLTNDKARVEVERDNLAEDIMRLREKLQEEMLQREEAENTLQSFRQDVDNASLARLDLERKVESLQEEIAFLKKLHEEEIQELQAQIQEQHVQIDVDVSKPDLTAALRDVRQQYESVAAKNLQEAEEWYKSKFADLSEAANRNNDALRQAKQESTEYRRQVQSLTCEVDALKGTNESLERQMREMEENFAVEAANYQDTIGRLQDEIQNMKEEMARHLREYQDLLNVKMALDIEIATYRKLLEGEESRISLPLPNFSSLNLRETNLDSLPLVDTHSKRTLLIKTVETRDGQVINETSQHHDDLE
Protocol: Co-Immunoprecipitation and Western blot analysis: Protein extracted from cell lysates was filtered, pre-cleared with 25 μL (bed volume) of protein G-Sepharose beads and immunoprecipitated with 1 μg of respective antibodies. The eluted proteins were resolved by SDS-PAGE, and subjected to Western blot analysis as described.

[3] = tested on: diverse cancer cells (lung cancer A549, H460, LLC1, KP7B; prostate cancer PC-3 MM2, DU145, LNCaP); assay: Apoptosis by ICC for active caspase-3, cancer cells; format: cell-based, human, mouse
Protocol: (§1) Normal cells (MEFs, HELs, HBEC, PrE, prostate stromal cells PrS) or lung cancer cells (human A549 and H460, mouse LLC1 and KP7B) and prostate cancer cells (PC-3 MM2, DU145, LNCaP) were treated with the indicated amounts (0.5, 1 and 10 μM) of Arylquin 1 or vehicle (V) for 24 h, and apoptosis was determined by ICC for active caspase-3. Data shown represent mean values from three independent experiments±s.d. Asterisks (**) or (*) indicate statistical significance (P<0.0001) or (P<0.001), respectively, by the Student t test.
(§2) See Hebbar, N., Wang, C. & Rangnekar, V. M. J Cell Phys 227, 3715-3721 (2012) and Shrestha-Bhattarai, T., Hebbar, N. & Rangnekar, V. M. Cancer Cell 24, 3-5 (2013). A total of three independent experiments were performed; and approximately 500 cells were scored in each experiment for apoptosis under a fluorescent microscope. Cell surface GRP78 expression on the cancer cell surface was quantified by FACS analysis in the Flow Cytometry Shared Resource Facility, Markey Cancer Center as previously described. See Hebbar, N., Wang, C. & Rangnekar, V. M. J Cell Phys 227, 3715-3721 (2012).

[4] = tested on: normal cells (MEFs, HELs, HBEC, PrE, PrS); assay: Apoptosis by ICC for active caspase-3, normal cells; format: cell-based, human, mouse
Protocol: as §1, §2

PC-3 cells = assay: Apoptosis, PC-3 cells; format: cell-based, human; details: 500 nM
Protocol: as §2

PC-3MM2 = assay: Apoptosis, PC-3MM2 cells; format: cell-based, human; details: 500 nM
Protocol: as §2

LNCaP = assay: Apoptosis, LNCaP cells; format: cell-based, human; details: 500 nM
Protocol: as §2

normal HEL cells = assay: Apoptosis of normal cells in co-culture experiments; format: cell-based, human; details: 500 nM
Protocol: as §2

cell surface GRP78 = assay: Paracrine apoptosis by CM from treated MEFs with GRP78 neutralizing antibody; format: cell-based; details: CM from Par-4+/+ MEFs treated with 500 nM
Protocol: FIGS. 4A and 4B are bar graphs illustrating percent cell surface GRP-78 expression and apoposis activity for an arylquinoline of the present disclosure. FIG. 4A is a bar graph showing cell surface GRP78 levels in cancer cells treated with CM from MEFs exposed to Arylquin 1. Par-4+/+ MEFs or Par-4−/− MEFs were treated with vehicle or Arylquin 1 (500 nM) for 24 h. The CM from these MEFs was incubated with the indicated cancer cells for 24 h. The cancer cells were then subjected to FACS analysis for cell surface GRP78 expression. Data shown represent mean values of three experiments±s.d. Asterisks (**) or (*) indicate statistical significance (P<0.0001) or (P<0.001), respectively, based on two-way ANOVA with data normality and equality of variance assumptions. […] After 24 h, the cancer cells were scored for apoptosis by ICC for active caspase-3. […]
as §2, with “See Hebbar, N., Wang, C. & Rangnekar, V. M. J Cell Phys 227, 3715-3721 (2012).” left out

vimentin-deficient cells = assay: Par-4 secretion from vimentin-deficient cells; format: cell-based
[5] = tested on: cancer cell cultures (PC-3 MM2 cells); assay: Ex vivo apoptosis of cancer cell cultures by serum from treated mice; format: in vivo, C57BL/6 mice (serum)
Protocol: Top: Cancer cells were co-cultured with MEFs and treated with Arylquin 1 (500 nM) or vehicle and tested for apoptosis. Bottom: Serum from mice injected with Arylquin 1 (Aq) or corn oil vehicle (V), was examined by Western blot analysis (not shown). Aliquots of serum from these mice were either directly added to the growth medium of cells in culture, or incubated with the indicated antibody, and then added to the growth medium of PC-3 MM2 cells to test for apoptosis.
Animal experiments: C57BL/6 mice were injected via the intraperitoneal route with Arylquin 1 (10 mg/kg body weight) or corn oil vehicle, and whole-blood samples were collected 24 h later. Serum was separated from the blood samples, heated at 56° C. to inactivate complement. Aliquots of the mouse serum samples were added to the growth medium (final 20% mouse serum) of normal and cancer cells in culture and tested for induction of ex vivo apoptosis in cancer cells. All animal procedures were performed with University of Kentucky IACUC approval.

**Q.** What does the source list for `CN(C)c1ccc2cc(-c3ccccc3F)c(N)nc2c1` [Arylquin 1, 3-(2-fluorophenyl)-N^7,N^7-dimethylquinoline-2,7-diamine]?
**A.** Par-4 secretion [1]: failed to induce the secretion of Par-4; Par-4 co-immunoprecipitation and co-localization with vimentin [2]: neither Par-4 co-immunoprecipitation nor co-localization with vimentin; vimentin expression [2]: not associated with inhibition of vimentin expression; direct apoptosis ([3]; 500 nM): did not directly induce apoptosis; apoptosis ([3]; 0.5, 1 and 10 μM, 24 h): induced the dose-dependent apoptosis in cancer cells; direct apoptosis ([4]; 500 nM): did not directly induce apoptosis; apoptosis ([4]; 0.5, 1 and 10 μM, 24 h): not in normal cells; apoptosis (PC-3 cells): induced apoptosis; apoptosis (PC-3MM2): induced apoptosis; apoptosis (LNCaP): not in LNCaP or DU145 cells; apoptosis of normal cells in co-culture (normal HEL cells): not normal HEL cells; mediation of paracrine apoptosis (cell surface GRP78): mediated via cell surface GRP78; Par-4 secretion (vimentin-deficient cells): did not further induce Par-4 secretion; pro-apoptotic activity in serum after Par-4 antibody ([5]; serum incubated with Par-4 antibody): neutralized by the Par-4 antibody; ex vivo apoptosis of cancer cell cultures by serum ([5]; serum of treated vs vehicle-treated mice, final 20% mouse serum): significantly higher (P<0.001) ex vivo apoptosis
